From patent publication EP4722207A1, “OXOISOINDOLINYL-SUBSTITUTED TETRAHYDROPYRIMIDINEDIONE DERIVATIVE AND USE THEREOF” (Gluetacs Therapeutics (Shanghai) Co., Ltd., priority 2023, dated 2024)

Key:
Format in all cases: cell-based
IKZF3 = target: T1, IKZF3 (Homo sapiens, UniProt Q96SW2+Q9UKT9); experiment: Western-blot assay, substrate protein degradation in hPBMCs: IKZF3; settings: for IKZF3 substrate protein remaining %: compounds at 50 nM and 500 nM, 24 hours; for substrate protein remaining % IKZF3: 24 hours of compound treatment, 50 nM and 500 nM
T1 construct: effects of the compounds of the present disclosure on the expression of target proteins in cells; endogenous in cells; host or cells: human PBMCs (hPBMCs)
T1 sequence (Q9UKT9 whole entry): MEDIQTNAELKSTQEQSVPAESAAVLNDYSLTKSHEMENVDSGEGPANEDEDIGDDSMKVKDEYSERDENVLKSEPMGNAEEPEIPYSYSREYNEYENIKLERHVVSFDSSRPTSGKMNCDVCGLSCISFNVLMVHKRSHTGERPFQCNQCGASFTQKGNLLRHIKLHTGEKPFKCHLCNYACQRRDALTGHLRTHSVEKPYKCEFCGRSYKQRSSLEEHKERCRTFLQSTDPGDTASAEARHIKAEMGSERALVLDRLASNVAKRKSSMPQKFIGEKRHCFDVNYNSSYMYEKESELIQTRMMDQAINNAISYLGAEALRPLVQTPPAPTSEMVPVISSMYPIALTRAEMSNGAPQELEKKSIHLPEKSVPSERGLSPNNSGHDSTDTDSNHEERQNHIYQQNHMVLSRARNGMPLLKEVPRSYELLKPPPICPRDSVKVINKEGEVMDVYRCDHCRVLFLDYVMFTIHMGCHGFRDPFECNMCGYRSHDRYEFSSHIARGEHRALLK
T1 sequence (Q96SW2 whole entry): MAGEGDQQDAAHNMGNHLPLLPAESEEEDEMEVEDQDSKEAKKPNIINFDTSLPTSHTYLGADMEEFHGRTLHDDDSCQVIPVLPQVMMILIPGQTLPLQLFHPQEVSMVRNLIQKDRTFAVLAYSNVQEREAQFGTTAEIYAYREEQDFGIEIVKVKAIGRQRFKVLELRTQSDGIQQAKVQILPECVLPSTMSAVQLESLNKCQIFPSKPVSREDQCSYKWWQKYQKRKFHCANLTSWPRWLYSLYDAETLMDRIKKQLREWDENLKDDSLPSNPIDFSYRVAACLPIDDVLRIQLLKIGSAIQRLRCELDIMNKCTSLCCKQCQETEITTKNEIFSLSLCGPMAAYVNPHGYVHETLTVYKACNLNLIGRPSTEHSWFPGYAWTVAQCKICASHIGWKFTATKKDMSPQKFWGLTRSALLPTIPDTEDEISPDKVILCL
T1 sequence (Q16531 whole entry partner): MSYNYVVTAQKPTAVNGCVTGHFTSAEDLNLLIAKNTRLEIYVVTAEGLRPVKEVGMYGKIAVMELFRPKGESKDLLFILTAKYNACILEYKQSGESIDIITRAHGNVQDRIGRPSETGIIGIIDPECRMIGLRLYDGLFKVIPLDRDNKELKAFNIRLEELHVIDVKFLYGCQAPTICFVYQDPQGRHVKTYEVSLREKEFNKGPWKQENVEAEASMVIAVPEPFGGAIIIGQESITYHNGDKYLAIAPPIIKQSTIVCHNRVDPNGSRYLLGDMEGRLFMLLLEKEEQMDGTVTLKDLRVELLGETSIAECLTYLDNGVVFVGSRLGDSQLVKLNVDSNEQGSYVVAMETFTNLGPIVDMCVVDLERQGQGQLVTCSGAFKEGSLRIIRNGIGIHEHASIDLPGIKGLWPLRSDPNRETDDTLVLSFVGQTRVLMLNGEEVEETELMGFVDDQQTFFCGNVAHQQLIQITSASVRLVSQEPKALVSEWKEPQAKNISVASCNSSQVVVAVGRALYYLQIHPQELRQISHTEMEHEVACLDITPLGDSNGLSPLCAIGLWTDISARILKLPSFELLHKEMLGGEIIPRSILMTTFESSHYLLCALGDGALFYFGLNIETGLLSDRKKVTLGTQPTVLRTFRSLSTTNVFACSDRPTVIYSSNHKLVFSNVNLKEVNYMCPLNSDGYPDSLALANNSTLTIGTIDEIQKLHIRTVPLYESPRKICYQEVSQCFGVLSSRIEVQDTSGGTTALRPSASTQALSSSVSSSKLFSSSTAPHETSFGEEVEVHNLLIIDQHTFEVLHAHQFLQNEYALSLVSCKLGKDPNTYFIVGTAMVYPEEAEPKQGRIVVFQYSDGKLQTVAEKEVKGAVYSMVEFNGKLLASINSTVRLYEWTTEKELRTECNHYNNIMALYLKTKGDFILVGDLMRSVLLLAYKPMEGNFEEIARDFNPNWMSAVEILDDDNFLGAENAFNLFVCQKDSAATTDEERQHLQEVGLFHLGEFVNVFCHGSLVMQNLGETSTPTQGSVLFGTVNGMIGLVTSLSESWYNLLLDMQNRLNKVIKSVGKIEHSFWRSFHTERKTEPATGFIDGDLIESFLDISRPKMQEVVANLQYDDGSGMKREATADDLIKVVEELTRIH

IKZF1 = target: T2, IKZF1 (Homo sapiens, UniProt Q13422+Q96SW2); experiment: Western-blot assay, substrate protein degradation in hPBMCs: IKZF1; settings: for IKZF1 substrate protein remaining %: compounds at 50 nM and 500 nM, 24 hours; for substrate protein remaining % IKZF1: 24 hours of compound treatment, 50 nM and 500 nM
T2 construct: effects of the compounds of the present disclosure on the expression of target proteins in cells; endogenous in cells; host or cells: human PBMCs (hPBMCs)
T2 sequence (Q13422 whole entry): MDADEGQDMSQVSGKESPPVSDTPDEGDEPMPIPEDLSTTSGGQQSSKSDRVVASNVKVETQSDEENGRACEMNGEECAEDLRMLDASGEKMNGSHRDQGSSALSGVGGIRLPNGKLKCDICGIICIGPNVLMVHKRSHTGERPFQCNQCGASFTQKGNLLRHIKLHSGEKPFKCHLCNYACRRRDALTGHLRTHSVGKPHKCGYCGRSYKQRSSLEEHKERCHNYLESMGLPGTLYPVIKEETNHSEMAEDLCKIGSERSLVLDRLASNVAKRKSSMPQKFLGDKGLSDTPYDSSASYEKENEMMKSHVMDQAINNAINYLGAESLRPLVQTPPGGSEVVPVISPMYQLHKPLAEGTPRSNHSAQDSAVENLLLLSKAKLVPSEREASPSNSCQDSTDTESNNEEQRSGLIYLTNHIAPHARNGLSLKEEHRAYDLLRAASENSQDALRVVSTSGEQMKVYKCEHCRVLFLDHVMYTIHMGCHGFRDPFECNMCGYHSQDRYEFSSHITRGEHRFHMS
T2 sequence (Q96SW2 whole entry): as the sequence (Q96SW2 whole entry) above
T2 sequence (Q16531 whole entry partner): as the sequence (Q16531 whole entry partner) above

WEE1 = target: T3, WEE1 (Homo sapiens, UniProt P30291+Q96SW2); experiment: Western-blot assay, substrate protein degradation in hPBMCs: WEE1; settings: for WEE1 substrate protein remaining %: compounds at 50 nM and 500 nM, 24 hours; for substrate protein remaining % WEE1: 24 hours of compound treatment, 50 nM and 500 nM
T3 construct: effects of the compounds of the present disclosure on the expression of target proteins in cells; endogenous in cells; host or cells: human PBMCs (hPBMCs)
T3 sequence (P30291 whole entry): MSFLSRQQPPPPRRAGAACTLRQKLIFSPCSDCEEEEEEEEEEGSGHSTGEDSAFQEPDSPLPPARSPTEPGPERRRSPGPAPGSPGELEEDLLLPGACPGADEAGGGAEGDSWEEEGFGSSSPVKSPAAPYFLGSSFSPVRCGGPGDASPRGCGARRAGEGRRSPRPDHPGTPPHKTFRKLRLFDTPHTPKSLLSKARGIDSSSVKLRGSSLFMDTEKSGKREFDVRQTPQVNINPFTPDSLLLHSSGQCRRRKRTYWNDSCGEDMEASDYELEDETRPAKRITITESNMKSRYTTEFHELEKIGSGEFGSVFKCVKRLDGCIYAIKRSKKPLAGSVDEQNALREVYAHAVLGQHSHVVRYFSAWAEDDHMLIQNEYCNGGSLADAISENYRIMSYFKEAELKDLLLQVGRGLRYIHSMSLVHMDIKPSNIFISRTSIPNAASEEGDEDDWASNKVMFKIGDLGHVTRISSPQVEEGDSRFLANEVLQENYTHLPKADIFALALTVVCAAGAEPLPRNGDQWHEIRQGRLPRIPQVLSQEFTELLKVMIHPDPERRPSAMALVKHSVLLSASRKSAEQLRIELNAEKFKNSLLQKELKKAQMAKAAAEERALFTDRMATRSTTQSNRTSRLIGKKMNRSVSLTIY
T3 sequence (Q96SW2 whole entry): as the sequence (Q96SW2 whole entry) above
T3 sequence (Q16531 whole entry partner): as the sequence (Q16531 whole entry partner) above

CK1α = target: T4, CK1α (Homo sapiens, UniProt P48729+Q96SW2); experiment: Western-blot assay, substrate protein degradation in hPBMCs: CK1α; settings: for CK1α substrate protein remaining %: compounds at 50 nM and 500 nM, 24 hours; for substrate protein remaining % CK1α: 24 hours of compound treatment, 50 nM and 500 nM
T4 construct: effects of the compounds of the present disclosure on the expression of target proteins in cells; endogenous in cells; host or cells: human PBMCs (hPBMCs)
T4 sequence (P48729 whole entry): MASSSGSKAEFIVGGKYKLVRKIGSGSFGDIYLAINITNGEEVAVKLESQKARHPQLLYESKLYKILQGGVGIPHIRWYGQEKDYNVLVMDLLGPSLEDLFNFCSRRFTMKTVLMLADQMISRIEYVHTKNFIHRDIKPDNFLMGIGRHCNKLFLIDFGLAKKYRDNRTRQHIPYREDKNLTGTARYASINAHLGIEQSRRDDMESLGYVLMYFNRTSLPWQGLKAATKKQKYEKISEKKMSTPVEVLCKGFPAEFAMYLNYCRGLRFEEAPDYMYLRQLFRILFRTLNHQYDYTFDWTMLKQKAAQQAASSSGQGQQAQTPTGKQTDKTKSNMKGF
T4 sequence (Q96SW2 whole entry): as the sequence (Q96SW2 whole entry) above
T4 sequence (Q16531 whole entry partner): as the sequence (Q16531 whole entry partner) above

IKZF2 = target: T5, IKZF2 (Homo sapiens, UniProt Q96SW2+Q9UKS7); experiment: Western-blot assay, substrate protein degradation in hPBMCs: IKZF2; settings: for IKZF2 substrate protein remaining %: compounds at 50 nM and 500 nM, 24 hours; for substrate protein remaining % IKZF2: 24 hours of compound treatment, 50 nM and 500 nM
T5 construct: effects of the compounds of the present disclosure on the expression of target proteins in cells; endogenous in cells; host or cells: human PBMCs (hPBMCs)
T5 sequence (Q9UKS7 whole entry): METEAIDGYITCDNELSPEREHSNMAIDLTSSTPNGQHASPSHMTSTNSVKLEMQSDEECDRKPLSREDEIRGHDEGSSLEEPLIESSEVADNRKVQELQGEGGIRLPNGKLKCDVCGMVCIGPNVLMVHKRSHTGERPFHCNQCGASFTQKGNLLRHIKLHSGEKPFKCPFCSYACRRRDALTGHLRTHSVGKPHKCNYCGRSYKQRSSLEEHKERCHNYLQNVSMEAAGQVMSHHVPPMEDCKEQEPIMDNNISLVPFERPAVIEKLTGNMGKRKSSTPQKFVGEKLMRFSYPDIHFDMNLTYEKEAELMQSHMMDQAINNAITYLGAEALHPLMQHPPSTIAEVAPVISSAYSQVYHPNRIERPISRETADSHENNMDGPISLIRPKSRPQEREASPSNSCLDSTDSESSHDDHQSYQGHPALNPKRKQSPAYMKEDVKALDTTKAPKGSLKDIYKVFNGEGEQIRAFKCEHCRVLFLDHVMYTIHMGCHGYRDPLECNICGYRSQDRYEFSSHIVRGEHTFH
T5 sequence (Q96SW2 whole entry): as the sequence (Q96SW2 whole entry) above
T5 sequence (Q16531 whole entry partner): as the sequence (Q16531 whole entry partner) above

GSPT1 = target: T6, GSPT1 (Homo sapiens, UniProt P15170+Q96SW2); experiment: Western-blot assay, substrate protein degradation in hPBMCs: GSPT1; settings: for GSPT1 substrate protein remaining %: compounds at 50 nM and 500 nM, 24 hours; for substrate protein remaining % GSPT1: 24 hours of compound treatment, 50 nM and 500 nM
T6 construct: effects of the compounds of the present disclosure on the expression of target proteins in cells; endogenous in cells; host or cells: human PBMCs (hPBMCs)

| SMILES | IKZF3 substrate protein remaining % (IKZF3) | IKZF1 substrate protein remaining % (IKZF1) | WEE1 substrate protein remaining % (WEE1) | CK1α substrate protein remaining % (CK1α) | IKZF2 substrate protein remaining % (IKZF2) | GSPT1 substrate protein remaining % (GSPT1) | substrate protein remaining % IKZF3 (IKZF3) | substrate protein remaining % IKZF1 (IKZF1) | substrate protein remaining % WEE1 (WEE1) | substrate protein remaining % CK1α (CK1α) | substrate protein remaining % IKZF2 (IKZF2) | substrate protein remaining % GSPT1 (GSPT1) |
| --- | --- | --- | --- | --- | --- | --- | --- | --- | --- | --- | --- | --- |
| Cc1ccc(N2CCN(Cc3ccc4c(c3)CN(N3CCC(=O)NC3=O)C4=O)CC2)cc1 [GT-06771, 1-(1-oxo-5-((4-(p-tolyl)piperazin-1-yl)methyl)isoindolin-2-yl)dihydropyrimidine-2,4(1H,3H)-dione] | A ("A" is defined as 0% ≤ substrate protein remaining % ≤ 80%) | B ("B" is defined as 80%< substrate protein remaining %≤ 100%) | A ("A" is defined as 0% ≤ substrate protein remaining % ≤ 80%) | A ("A" is defined as 0% ≤ substrate protein remaining % ≤ 80%) | A ("A" is defined as 0% ≤ substrate protein remaining % ≤ 80%) | A ("A" is defined as 0% ≤ substrate protein remaining % ≤ 80%) |  |  |  |  |  |  |
| O=C1CCN(N2C(=O)c3ccc(CN4C[C@H]5C[C@@H]4CN5c4cccc(Cl)c4Cl)cc3C2=O)C(=O)N1 [GT-07435, 5-(((1R,4R)-5-(2,3-dichlorophenyl)-2,5-diazabicyclo[2.2.1]heptan-2-yl)methyl)-2-(2,4-dioxotetrahydropyrimidin-1(2H)-yl)isoindoline-1,3-dione] |  |  |  |  |  |  | B (80%< substrate protein remaining %≤ 100%) | B (80%< substrate protein remaining %≤ 100%) | B (80%< substrate protein remaining %≤ 100%) | A (0% ≤ substrate protein remaining % ≤ 80%) | B (80%< substrate protein remaining %≤ 100%) | B (80%< substrate protein remaining %≤ 100%) |
| O=C1CCN(N2Cc3cc(CN4CCC(c5ccnc(F)c5F)CC4)ccc3C2=O)C(=O)N1 [GT-06396, 1-(5-((4-(2,3-difluoropyridin-4-yl)piperidin-1-yl)methyl)-1-oxoisoindolin-2-yl)dihydropyrimidine-2,4(1H,3H)-dione] | B ("B" is defined as 80%< substrate protein remaining %≤ 100%) | B ("B" is defined as 80%< substrate protein remaining %≤ 100%) | B ("B" is defined as 80%< substrate protein remaining %≤ 100%) | A ("A" is defined as 0% ≤ substrate protein remaining % ≤ 80%) | B ("B" is defined as 80%< substrate protein remaining %≤ 100%) | B ("B" is defined as 80%< substrate protein remaining %≤ 100%) |  |  |  |  |  |  |
| O=C1CCN(N2C(=O)c3ccc(CN4CCN(C(c5ccc(Cl)cc5)c5ccc(Cl)cc5)CC4)cc3C2=O)C(=O)N1 [GT-05269, 5-((4-(bis(4-chlorophenyl)methyl)piperazin-1-yl)methyl)-2-(2,4-dioxotetrahydropyrimidin-1(2H)-yl)isoindoline-1,3-dione] | B ("B" is defined as 80%< substrate protein remaining %≤ 100%) | B ("B" is defined as 80%< substrate protein remaining %≤ 100%) | B ("B" is defined as 80%< substrate protein remaining %≤ 100%) | A ("A" is defined as 0% ≤ substrate protein remaining % ≤ 80%) | B ("B" is defined as 80%< substrate protein remaining %≤ 100%) | A ("A" is defined as 0% ≤ substrate protein remaining % ≤ 80%) |  |  |  |  |  |  |
| O=C1CCN(N2Cc3cc(CN4CCN(c5nccc(Cl)c5Br)CC4)ccc3C2=O)C(=O)N1 [GT-05432, 1-(5-((4-(3-bromo-4-chloropyridin-2-yl)piperazin-1-yl)methyl)-1-oxoisoindolin-2-yl)dihydropyrimidine-2,4(1H,3H)-dione] | B ("B" is defined as 80%< substrate protein remaining %≤ 100%) | B ("B" is defined as 80%< substrate protein remaining %≤ 100%) | A ("A" is defined as 0% ≤ substrate protein remaining % ≤ 80%) | B ("B" is defined as 80%< substrate protein remaining %≤ 100%) | B ("B" is defined as 80%< substrate protein remaining %≤ 100%) | B ("B" is defined as 80%< substrate protein remaining %≤ 100%) | B (80%< substrate protein remaining %≤ 100%) | B (80%< substrate protein remaining %≤ 100%) | A (0% ≤ substrate protein remaining % ≤ 80%) | B (80%< substrate protein remaining %≤ 100%) | B (80%< substrate protein remaining %≤ 100%) | A (0% ≤ substrate protein remaining % ≤ 80%) |
| O=C1CCN(N2Cc3cc(CN4CCC(c5ccccc5F)CC4)ccc3C2=O)C(=O)N1 [GT-06889, 1-(5-((4-(2-fluorophenyl)piperidin-1-yl)methyl)-1-oxoisoindolin-2-yl)dihydropyrimidine-2,4(1H,3H)-dione] | B ("B" is defined as 80%< substrate protein remaining %≤ 100%) | B ("B" is defined as 80%< substrate protein remaining %≤ 100%) | A ("A" is defined as 0% ≤ substrate protein remaining % ≤ 80%) | B ("B" is defined as 80%< substrate protein remaining %≤ 100%) | A ("A" is defined as 0% ≤ substrate protein remaining % ≤ 80%) | A ("A" is defined as 0% ≤ substrate protein remaining % ≤ 80%) |  |  |  |  |  |  |
| O=C1CCN(N2Cc3cc(CN4CCC(n5cnc6cc(F)ccc65)CC4)ccc3C2=O)C(=O)N1 [GT-07503, 1-(5-((4-(5-fluoro-1H-benzo[d]imidazol-1-yl)piperidin-1-yl)methyl)-1-oxoisoindolin-2-yl)dihydropyrimidine-2,4(1H,3H)-dione] |  |  |  |  |  |  | B (80%< substrate protein remaining %≤ 100%) | A (0% ≤ substrate protein remaining % ≤ 80%) | A (0% ≤ substrate protein remaining % ≤ 80%) | A (0% ≤ substrate protein remaining % ≤ 80%) | B (80%< substrate protein remaining %≤ 100%) | A (0% ≤ substrate protein remaining % ≤ 80%) |
| O=C1CCN(N2C(=O)c3ccc(CN4CCN(C(c5ccccc5)c5ccncc5)CC4)cc3C2=O)C(=O)N1 (stereo not drawn) [GT-06378, 2-(2,4-dioxotetrahydropyrimidin-1(2H)-yl)-5-((4-(phenyl(pyridin-4-yl)methyl)piperazin-1-yl)methyl)isoindoline-1,3-dione] | A ("A" is defined as 0% ≤ substrate protein remaining % ≤ 80%) | B ("B" is defined as 80%< substrate protein remaining %≤ 100%) | A ("A" is defined as 0% ≤ substrate protein remaining % ≤ 80%) | B ("B" is defined as 80%< substrate protein remaining %≤ 100%) | A ("A" is defined as 0% ≤ substrate protein remaining % ≤ 80%) | B ("B" is defined as 80%< substrate protein remaining %≤ 100%) |  |  |  |  |  |  |
| Cc1ccccc1N1CCN(Cc2ccc3c(c2)CN(N2CCC(=O)NC2=O)C3=O)CC1 [GT-06769, 1-(1-oxo-5-((4-(o-tolyl)piperazin-1-yl)methyl)isoindolin-2-yl)dihydropyrimidine-2,4(1H,3H)-dione] | A ("A" is defined as 0% ≤ substrate protein remaining % ≤ 80%) | B ("B" is defined as 80%< substrate protein remaining %≤ 100%) | A ("A" is defined as 0% ≤ substrate protein remaining % ≤ 80%) | A ("A" is defined as 0% ≤ substrate protein remaining % ≤ 80%) | A ("A" is defined as 0% ≤ substrate protein remaining % ≤ 80%) | A ("A" is defined as 0% ≤ substrate protein remaining % ≤ 80%) |  |  |  |  |  |  |
| Cc1cc(N2CCN(Cc3ccc4c(c3)CN(N3CCC(=O)NC3=O)C4=O)CC2)ccn1 [GT-05438, 1-(5-((4-(2-methylpyridin-4-yl)piperazin-1-yl)methyl)-1-oxoisoindolin-2-yl)dihydropyrimidine-2,4(1H,3H)-dione] |  |  |  |  |  |  | A (0% ≤ substrate protein remaining % ≤ 80%) | A (0% ≤ substrate protein remaining % ≤ 80%) | A (0% ≤ substrate protein remaining % ≤ 80%) | A (0% ≤ substrate protein remaining % ≤ 80%) | B (80%< substrate protein remaining %≤ 100%) | A (0% ≤ substrate protein remaining % ≤ 80%) |
